Data on 3 compounds can be found in US20240391959A1, “BICYCLIC PEPTIDE LIGANDS […] FOR TRANSFERRIN RECEPTOR 1 (TfR1)” (BicycleTx Limited, priority 2020, published 2024).

Experiment [1] deals with T1, human TfR1 (Homo sapiens, UniProt P02786). In words: TfR1 inhibition assay (Alpha assay, transferrin inhibition). Conditions: inhibition of fluorescently labelled human transferrin binding; read-out: Geomean IC50 (μM) Human TfR1. The protocol:
TfR1 inhibitory activity of peptides of the invention (IC50) was determined using Alpha assay, in accordance with the following method. Proteins, peptides and Alpha reagents were prepared to 5× concentration and 5 μl of each reagent added to 25 μl total volume in white 384-well Optiplate to make 1× final concentration. Fluorescently labelled human transferrin (Invitrogen, T2871) was diluted to 2.5 nM in 25 mM HEPES with 100 mM NaCl, 4 mM CaCl2, 0.5% BSA and 0.05% P20, pH 7.4. Human or cynomolgus TfR1 protein was diluted to 50 nM and unlabelled human transferrin (R&D Systems, 2914-HT) was diluted to 500 nM in the same assay buffer. Non-labelled peptides from DMSO stock were diluted 20-fold in the same assay buffer, followed by 1 in 3 serial dilution in assay buffer containing 5% DMSO to give 11-different concentrations. 5 μl fluorescently labelled transferrin, 5 μl human or cynomolgus TfR1, 5 μl non-labelled peptide or unlabelled human transferrin (R&D Systems, 2914-HT) were added to white 384-well Optiplate and incubated for 30 min. Anti-FITC Acceptor (PerkinElmer, AL127) was diluted 50-fold in assay buffer, 5 μl added to assay plate and incubated for 30 min. […] Luminescence measurements were conducted on a BMG PHERAstar FS or FSX equipped with an AlphaScreen 520-620 module at 25° C. following excitation at 680 nm. […]
Target sequence in this assay (P02786 whole entry): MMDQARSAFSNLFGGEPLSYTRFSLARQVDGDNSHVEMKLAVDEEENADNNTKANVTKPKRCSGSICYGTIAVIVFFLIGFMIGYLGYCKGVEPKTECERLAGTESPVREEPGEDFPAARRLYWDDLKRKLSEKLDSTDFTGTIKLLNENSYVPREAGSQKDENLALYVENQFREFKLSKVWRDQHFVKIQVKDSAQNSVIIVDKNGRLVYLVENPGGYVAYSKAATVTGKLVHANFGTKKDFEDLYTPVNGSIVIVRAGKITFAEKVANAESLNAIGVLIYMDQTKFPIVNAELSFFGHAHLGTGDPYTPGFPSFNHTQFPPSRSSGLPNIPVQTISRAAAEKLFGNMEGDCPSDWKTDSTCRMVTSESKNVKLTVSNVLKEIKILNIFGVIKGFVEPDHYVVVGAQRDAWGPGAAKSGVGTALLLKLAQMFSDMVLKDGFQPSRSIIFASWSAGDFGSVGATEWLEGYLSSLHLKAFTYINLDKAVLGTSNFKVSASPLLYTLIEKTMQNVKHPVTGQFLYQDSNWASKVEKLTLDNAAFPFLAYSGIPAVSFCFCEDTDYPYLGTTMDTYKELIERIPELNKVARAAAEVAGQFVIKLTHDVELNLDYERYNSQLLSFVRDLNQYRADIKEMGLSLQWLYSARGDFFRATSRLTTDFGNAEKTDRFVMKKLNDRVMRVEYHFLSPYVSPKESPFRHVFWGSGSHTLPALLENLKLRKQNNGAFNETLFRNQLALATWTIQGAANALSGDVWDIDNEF

Experiment [2] deals with cynomolgus TfR1. Format: binding.
In experiment [3] the target is cynomolgus TfR1. The experiment is classed as binding. The source holds these as a separate data set.
In experiment [4] the target is T1, human TfR1. The experiment is described as follows: biochemical. The experiment is classed as binding. Also on record: His6-tagged TfR1 (a.a. 89-760) (ACRO Biosystems, CD1-H5243 and TFR-C524a); His6; purchased R&D Systems or Acro Biosystems 2474-TR or CD1-H5243.
Target sequence in this assay (P02786 89-760): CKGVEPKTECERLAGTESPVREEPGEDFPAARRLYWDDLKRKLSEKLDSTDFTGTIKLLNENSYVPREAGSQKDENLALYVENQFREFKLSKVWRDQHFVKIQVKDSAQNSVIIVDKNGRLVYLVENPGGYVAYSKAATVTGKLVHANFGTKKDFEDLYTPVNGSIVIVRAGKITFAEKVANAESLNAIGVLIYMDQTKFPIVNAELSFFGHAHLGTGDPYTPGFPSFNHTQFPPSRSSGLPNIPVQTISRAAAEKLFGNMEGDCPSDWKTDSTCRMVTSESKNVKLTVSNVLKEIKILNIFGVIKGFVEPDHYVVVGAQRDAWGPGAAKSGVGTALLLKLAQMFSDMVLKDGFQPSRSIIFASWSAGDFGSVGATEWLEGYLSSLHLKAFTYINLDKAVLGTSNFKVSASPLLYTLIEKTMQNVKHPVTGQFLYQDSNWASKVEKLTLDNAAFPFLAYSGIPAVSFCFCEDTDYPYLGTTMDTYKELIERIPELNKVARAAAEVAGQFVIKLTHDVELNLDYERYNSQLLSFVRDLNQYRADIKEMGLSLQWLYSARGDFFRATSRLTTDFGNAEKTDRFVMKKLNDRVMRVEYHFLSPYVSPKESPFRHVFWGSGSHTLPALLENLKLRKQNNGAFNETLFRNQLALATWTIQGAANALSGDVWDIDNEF
In experiment [5] the target is T1, human TfR1. In words: biochemical. Format: binding. More on the design: His6-tagged TfR1 (a.a. 89-760) (ACRO Biosystems, CD1-H5243 and TFR-C524a); His6; purchased R&D Systems or Acro Biosystems 2474-TR or CD1-H5243. As to conditions: Human TfR1 Kd (nM).
Target sequence in this assay (P02786 89-760): as above

Starred links: 1 amine or outer side, 2 acyl side, 3 side chain; linkers in the order of their positions; H or OH if unused. Positions of bridges follow the written chain, without caps; N, C: chain ends. Residues, ends and D or L forms follow the SMILES beside them. TATA = O=C(CC[*:1])N1CN(C(=O)CC[*:2])CN(C(=O)CC[*:3])C1

In the case of `CC[C@H](C)[C@@H]1NC(=O)[C@H](Cc2ccccc2)NC(=O)[C@H](C)NC(=O)[C@H](CC(C)C)NC(=O)CNC(=O)[C@@H]2CSCCC(=O)N3CN(CN(C3)C(=O)CCSC[C@@H](C(=O)N[C@@H](C)C(N)=O)NC(=O)[C@H](CCC(=O)O)NC1=O)C(=O)CCSC[C@H](NC(=O)[C@H](C)N)C(=O)N[C@@H](CCCNC(=N)N)C(=O)N[C@@H](CCC(=O)O)C(=O)N[C@@H](Cc1ccccc1)C(=O)N[C@@H](Cc1ccccc1)C(=O)N[C@@H](CC(=O)O)C(=O)N[C@@H]([C@@H](C)O)C(=O)N2` [BCY12452, A-(SEQ ID NO: 2)-A] (H-ACREFFDTCGLAFIECA-NH2; linker 2-9-16 via TATA; N-terminus and C-terminus assumed), on human TfR1 [1], the IC50 was found to be 1.21 µM.

With `CC[C@H](C)[C@@H]1NC(=O)[C@@H]2CSCC(=O)N3CN(CN(C3)C(=O)CSC[C@@H](C(=O)N[C@@H](C)C(N)=O)NC(=O)[C@H](Cc3ccc(O)cc3)NC(=O)[C@H](CO)NC1=O)C(=O)CSC[C@H](NC(=O)[C@H](C)N)C(=O)N[C@@H](CO)C(=O)N1CCC[C@H]1C(=O)N[C@@H](CC(=O)O)C(=O)N[C@@H](C)C(=O)N[C@@H](Cc1c[nH]cn1)C(=O)N[C@@H](CC(C)C)C(=O)NCC(=O)N2` [BCY15468, A-(SEQ ID NO: 9)-A], the figures for the Ki on cynomolgus TfR1 [2] and at human TfR1 [4] (Human TfR1 Ki (nM)) were 1230 nM and 103 nM, respectively. For the same compound, the Kd on cynomolgus TfR1 [3] worked out at 4020 nM; on human TfR1 [5] it was 29 nM.

`CC[C@H](C)[C@@H]1NC(=O)[C@@H]2CSCC(=O)N3CN(CN(C3)C(=O)CSC[C@@H](C(=O)N[C@@H](CCC(=O)O)C(=O)N3CCCC[C@H]3C(=O)N[C@@H](Cc3c[nH]c4ccccc34)C(N)=O)NC(=O)[C@H](Cc3ccc(O)cc3)NC(=O)[C@H](CO)NC1=O)C(=O)CSC[C@H](NC(C)=O)C(=O)N[C@@H](CO)C(=O)N1CCC[C@H]1C(=O)N[C@@H](CC(=O)O)C(=O)N[C@@H](C)C(=O)N[C@@H](Cc1c[nH]cn1)C(=O)N[C@@H](CC(C)C)C(=O)NCC(=O)N2` [BCY18039, Ac-(SEQ ID NO: 9)-E[Pip]W]: the results for the Kd on cynomolgus TfR1 [3] and on human TfR1 [5] were 819 nM and 8.6 nM, respectively. Moreover, the Ki on human TfR1 [4] (Geomean Ki (μM)) and at human TfR1 [4] (Human TfR1 Ki (nM)) was 8 nM each time.
